Data taken from patent US8058242B2, “Chimeric proteins with natriuretic activity” (The University of Queensland, priority 2004, dated 2011).
Positions of bridges follow the written chain, without caps; N, C: chain ends. Residues, ends and D or L forms follow the SMILES beside them.

Test system: CHF-induced sheep
Assay: Ovine model of tachycardia induced congestive heart failure (Example 9)
Assay type: in vivo
From the text: All procedures conform with the Guide for the Care and Use of Laboratory Animals published by the US National Institutes of Health (NIH Publication No. 82-23, revised 1996). Six adult crossbred sheep (weight, 50 to 55 kg) were implanted with pacemakers under isoflurane anesthesia and oxygen. A bipolar screw fixation ventricular pacing lead was placed transvenously under fluoroscopic guidance in the apex of the right ventricle. The proximal end of the lead was connected to pacemakers reprogrammed for high-rate pacing (Sigma, Medtronic) that were positioned subcutaneously in the lateral aspect of the neck. Oxytetracycline (5 mL), an antibiotic, and flunixin meglumine (1 mL), an analgesic, were administered subcutaneously prophylactically on the day of surgery. After 3 days of recovery, right ventricular pacing was initiated at 180 bpm and continued for 4 weeks to induce CHF (NYHC III). Animals were anesthetized and an echocardiographic examination and a conductance catheter evaluation were performed.
Animals were randomized to either TNPc or ANP on two consecutive days, according to the schedule in Table 11B. Studies were conducted over a period of 4 days with two study groups.
On the day of the first experiment, after a control period in which baseline measurements were made, drug infusion via a fore-leg vein using new calibrated Terumo syringe pumps was commenced (TNPc or ANP randomized to days 1 or 2) at 2, 4 and 6 pmol/min/kg, each for 30 min. Echocardiographic and conductance catheter evaluations were performed at 30 min after each drug level. On the second day, the experiment was repeated with the other drug (either TNPc or […] according to day 1 treatment) at 2, 4 and 6 pmol/min, each for 30 min and echocardiographic and conductance catheter evaluations were performed at 30 min after each drug level. The animal was euthanased at the conclusion of the experiment. Stock solutions of each peptide were made up under sterile conditions using sterile saline, were protected from light with aluminium foil and kept refrigerated.
Left ventricular (LV) ejection fraction was monitored by echocardiography and the conductance catheter was used to measure LV dP/i, LV end diastolic pressure, LV ESPVR, heart rate and mean arterial pressure (MAP). Values were expressed as mean +/−SEM and were analyzed by Students t-test. A value of p<0.05 was considered significant.

`CC[C@H](C)[C@H](NC(=O)[C@H](CCCCN)NC(=O)[C@H](CO)NC(=O)[C@H](CC(=O)O)NC(=O)[C@@H](N)CO)C(=O)NCC(=O)N[C@@H](CC(N)=O)C(=O)NCC(=O)N[C@H]1CSSC[C@@H](C(=O)N[C@@H](CC(N)=O)C(=O)N[C@@H](CCCNC(=N)N)C(=O)N[C@H](C(=O)N[C@@H](CCSC)C(=O)N[C@@H](CCC(N)=O)C(=O)N[C@@H](CC(N)=O)C(=O)N2CCC[C@H]2C(=O)N2CCC[C@H]2C(=O)N[C@@H](CCCCN)C(=O)N[C@@H](CCCCN)C(=O)N[C@@H](Cc2ccccc2)C(=O)N[C@@H](CO)C(=O)NCC(=O)N[C@@H](CCC(=O)O)C(=O)O)[C@@H](C)CC)NC(=O)CNC(=O)[C@H](CC(C)C)NC(=O)CNC(=O)[C@H](CO)NC(=O)[C@H](C(C)C)NC(=O)[C@H](CO)NC(=O)CNC(=O)[C@H]([C@@H](C)CC)NC(=O)[C@H](CCCNC(=N)N)NC(=O)[C@H](CC(=O)O)NC(=O)[C@H](CC(C)C)NC(=O)[C@@H]2CCCN2C(=O)[C@H](Cc2ccccc2)NC(=O)CNC(=O)[C@H](Cc2ccccc2)NC1=O` [TNPc] (H-SDSKIGNGCFGFPLDRIGSVSGLGCNRIMQNPPKKFSGE-OH; disulfide 9-25) was tested. Which “reduction of −dp/dt” value (TNPc infusion) did it give?
The value was 27%.

And the “+dP/dt” value (high dose infusion)?
The value was 1078.00.

What about the EDP (high dose infusion) of the same compound?
The EDP was 4.17.

And the ESPR slope (high dose infusion)?
The ESPR slope was 3.78.

What about the ejection fraction (high dose infusion) of the same compound?
The ejection fraction was 61.83.

And the heart rate (high dose infusion)?
Its heart rate is 100.67.

What about the “−dP/dt” value (high dose infusion) of the same compound?
Its value is 1298.00.

And the “+dP/dt” value (low dose infusion)?
The value was 1079.67.

What about the EDP (low dose infusion) of the same compound?
The EDP was 5.83.

What about the ESPR slope (low dose infusion) of the same compound?
Its ESPR slope is 2.72.

What about the ejection fraction (low dose infusion) of the same compound?
The ejection fraction was 48.17.

And the heart rate (low dose infusion)?
Its heart rate is 98.00.

And the “−dP/dt” value (low dose infusion)?
Its value is 1469.50.

And the “+dP/dt” value (recovery (30 min))?
Its value is 1064.83.

What about the EDP (recovery (30 min)) of the same compound?
Its EDP is 7.67.

And the ESPR slope (recovery (30 min))?
The ESPR slope was 3.35.

What about the ejection fraction (recovery (30 min)) of the same compound?
Its ejection fraction is 42.33.

And the heart rate (recovery (30 min))?
The heart rate was 98.00.

And the “−dP/dt” value (recovery (30 min))?
The value was 1201.50.

What does the source list for `CC[C@H](C)[C@@H]1NC(=O)[C@H](CCCNC(=N)N)NC(=O)[C@H](CC(=O)O)NC(=O)[C@H](CCSC)NC(=O)[C@H](CCCNC(=N)N)NC(=O)CNC(=O)CNC(=O)[C@H](Cc2ccccc2)NC(=O)[C@@H](NC(=O)[C@H](CO)NC(=O)[C@H](CO)NC(=O)[C@H](CCCNC(=N)N)NC(=O)[C@H](CCCNC(=N)N)NC(=O)[C@H](CC(C)C)NC(=O)[C@@H](N)CO)CSSC[C@@H](C(=O)N[C@@H](CC(N)=O)C(=O)N[C@@H](CO)C(=O)N[C@@H](Cc2ccccc2)C(=O)N[C@@H](CCCNC(=N)N)C(=O)N[C@@H](Cc2ccc(O)cc2)C(=O)O)NC(=O)CNC(=O)[C@H](CC(C)C)NC(=O)CNC(=O)[C@H](CO)NC(=O)[C@H](CCC(N)=O)NC(=O)[C@H](C)NC(=O)CNC1=O` [hANP, reference compound]?
+dP/dt (high dose infusion): 1047.00; EDP (high dose infusion): 3.33; ESPR slope (high dose infusion): 3.04; ejection fraction (high dose infusion): 54.50; heart rate (high dose infusion): 96.33; −dP/dt (high dose infusion): 1332.17; +dP/dt (low dose infusion): 949.33; EDP (low dose infusion): 5.83; ESPR slope (low dose infusion): 2.85; ejection fraction (low dose infusion): 42.17; heart rate (low dose infusion): 91.00; −dP/dt (low dose infusion): 1336.50; +dP/dt (recovery (30 min)): 1035.83; EDP (recovery (30 min)): 6.33; ESPR slope (recovery (30 min)): 3.44; ejection fraction (recovery (30 min)): 41.00; heart rate (recovery (30 min)): 91.00; −dP/dt (recovery (30 min)): 1232.17
